The text below walks through data of article PMC12376128, “In vitro and In Vivo Drug Metabolism Analysis of BPI-460372 - A Covalent TEAD1/3/4 Inhibitor” (Current Drug Metabolism, 2025).

Series [1] in a line: Metabolite identification in rat plasma, urine, feces and bile. In kind it is in vivo, SD rats. The procedure:
The plasma samples were acquired from SD rats (n=6, 3 female and 3 male) and beagle dogs (n=6, 3 female and 3 male) after administration of 12 mg/kg and 8 mg/kg of BPI-460372, respectively. The rat urine, feces, and bile samples were acquired in SD rats after administration of 6 mg/kg of BPI-460372.
Equal volume from each rat was pooled together to get 1 male and 1 female 0-24 h plasma samples. An equal percentage by volume of individual urine sample (0-8, 8-24, and 24-48 h) from 3 female and 3 male rats was pooled by time interval across rats, respectively, resulting in two pooled urine samples (1 male and 1 female). An equal percentage by weight of individual feces samples (0-8, 8-24, and 24-48 h) was pooled by time interval across female and male rats, resulting in two pooled fecal samples. An equal percentage by volume of individual bile samples (0-4, 4-8, 8-24, and 24-48 h) was pooled by time interval across female and male rats, resulting in two pooled bile samples. […] Equal volumes from 3 female and 3 male rats were pooled together to get two 0-48 h plasma samples. For blank samples of plasma, urine, and bile, equal volume was pooled across subjects. For a blank sample of feces, equal weight was pooled across rats.
The pooled plasma, feces, and bile samples were extracted by adding 3-fold volume of acetonitrile, and the mixture was vortexed (1 min) and sonicated (1 min) before centrifugation (7220 g, 5 min). The pooled urine samples were centrifuged (7220 g, 5 min). Then the supernatant was transferred into a clean tube and evaporated to dryness under the nitrogen stream. The residues were redissolved with an appropriate volume of acetonitrile/water (20: 80, v: v). After centrifugation, the redissolved solution was transferred into an HPLC vial for UHPLC-Orbitrap-HRMS (15000 g, 10 min, 4°C).

The test system of series [2] is dog hepatocytes. The experiment in a line: Metabolism and metabolite formation in hepatocytes. In kind it is in vitro ADME, beagle dog. The settings on record: for UV (314 nm) Peak Areas Relative Abundance: beagle dog hepatocytes, 10 µM BPI-460372, 4 h incubation. From the text:
(§1) All the samples were duplicates.

Series [3] deals with rat hepatocytes. The experiment in a line: Metabolism and metabolite formation in hepatocytes. Type of series: in vitro ADME, SD rat. The conditions noted are these: for UV (314 nm) Peak Areas Relative Abundance: SD rat hepatocytes, 10 µM BPI-460372, 4 h incubation.
Text: as §1

Series [4] deals with monkey hepatocytes. The experiment in a line: Metabolism and metabolite formation in hepatocytes. Type of series: in vitro ADME, cynomolgus monkey. The settings on record: for UV (314 nm) Peak Areas Relative Abundance: cynomolgus monkey hepatocytes, 10 µM BPI-460372, 4 h incubation.
Text: as §1

Series [5] relates to mouse hepatocytes. The experiment in a line: Metabolism and metabolite formation in hepatocytes. In kind it is in vitro ADME, ICR mouse. The conditions noted are these: for UV (314 nm) Peak Areas Relative Abundance: ICR mouse hepatocytes, 10 µM BPI-460372, 4 h incubation.
Text: as §1

The test system of series [6] is human hepatocytes. The experiment in a line: Metabolism and metabolite formation in hepatocytes. The settings on record: human hepatocytes; for UV (314 nm) Peak Areas Relative Abundance: 10 µM BPI-460372, 4 h incubation.
For series [7], the system named is monkey hepatocytes. The experiment in a line: in vitro. On the procedure:
(§2) After mixing, 20 μL of cell suspension was serially transferred into 200 μL of cold acetonitrile containing IS at the time points of 0, 5, 15, 30, 60, and 120 min, respectively.
(§3) The metabolic stability was assessed by measuring the depletion of substrate. The half-life (t1/2), intrinsic clearance (CLint, in virto, µL·min^-1·million cells^-1), whole liver intrinsic clearance (CLint, in vivo, mL·min-1·kg^-1), and in vivo hepatic clearance (CLH, mL·min-1·kg^-1) were calculated following a reported method. In the calculation of CLH, the fraction drug unbound (Fub) was set as 1. The hepatic blood flow, liver weight, and hepatocellularity of five species were used for the calculation of CLint, in vivo [13, 14]. The hepatic extraction ratio (Eh) means the ratio of CLH to hepatic blood flow.

Series [8] relates to human hepatocytes. The experiment in a line: in vitro. On the procedure: as §2, §3
The subject of series [9] is mouse hepatocytes. The experiment in a line: in vitro. On the procedure:
as §2, §3

Series [10] can be described thus: in vitro. The conditions noted are these: hepatocytes. The procedure: as §2, §3
Series [11] deals with rat hepatocytes. The experiment in a line: in vitro. The procedure:
as §2, §3

The test system of series [12] is dog hepatocytes. The experiment in a line: in vitro. The procedure:
as §2, §3

The mark [13] stands for this setting: oral 6 mg/kg BPI-460372, average of male and female pooled samples.

One may read the half-life as the time in which the quantity being followed falls by half.

Each structure is given as a SMILES string.

Consider `CC(=O)NC(CSCCC(=O)N1CC(n2c(=O)n(-c3ccc(C(F)(F)F)cc3)c3cncnc32)C1)C(=O)O` (centres unmarked) [M552], for which, in [1] (setting [13]), the “Relative abundance of MS peak areas, Rat Bile 0-48 h” value is listed as 0.56%; the “Relative abundance of MS peak areas, Rat Feces 0-48 h” value is on record as 1.65%; the “Relative abundance of MS peak areas, Rat Urine 0-48 h” value came out at 6.73%. In series [1] (oral 12 mg/kg BPI-460372, average of male and female pooled samples), the “Relative abundance of MS peak areas, Rat Plasma 0-24 h” value is given as 0.015%.
As for `CC(=O)N1CC(n2c(=O)n(-c3ccc(C(F)(F)F)cc3)c3nccnc32)C1` [M377], the “UV (314 nm) Peak Areas Relative Abundance” value in series [2] is reported as 2.44%; in series [3] it was 2.6%; in series [4], 2.50%; in series [5] it was 3.57%; in series [6], 1.48%.
Turning to `O=C(O)[C@H]1O[C@@H](Oc2ccc3ccc(=O)oc3c2)[C@H](O)[C@@H](O)[C@@H]1O` [7-EC-GluA, reference compound], the “Area Ratio T0 h” value in series [2] (dog hepatocytes, 7-EC incubation, 0 h) was found to be 0.00E+00; in series [3] (rat hepatocytes, 7-EC incubation, 0 h) it was 1.45E+02; in [4] (monkey hepatocytes, 7-EC incubation, 0 h), 6.08E+02; in series [5] (mouse hepatocytes, 7-EC incubation, 0 h), 0.00E+00; in series [6] (7-EC incubation, 0 h) it was 1.07E+03. Besides, the “Area Ratio T4 h” value in [2] (dog hepatocytes, 7-EC incubation, 4 h) was determined as 1.27E+07; in [3] (rat hepatocytes, 7-EC incubation, 4 h), 8.08E+05; in series [4] (monkey hepatocytes, 7-EC incubation, 4 h), 1.55E+07; in [5] (mouse hepatocytes, 7-EC incubation, 4 h), 7.44E+06; in series [6] (7-EC incubation, 4 h), 3.85E+06.
Consider `NC(CCC(=O)NC(CSCC(O)C(=O)N1CC(n2c(=O)n(-c3ccc(C(F)(F)F)cc3)c3nccnc32)C1)C(=O)NCC(=O)O)C(=O)O` (centres unmarked) [M712], for which the “UV (314 nm) Peak Areas Relative Abundance” value is reported as “+” in [2]; “+” in series [3]; “+” in [4]; 1.43% in series [5]; “+” in series [6]. In addition, in series [1] (setting [13]), the “Relative abundance of MS peak areas, Rat Bile 0-48 h” value was 0.10%.
`O=c1ccc2ccc(O)cc2o1` [7-hydroxycoumarin]: the CLH came out at 33.5 mL/min/kg in series [7] (cynomolgus monkey, 1 µM); 17.7 mL/min/kg in series [8] (human, 1 µM); 58.5 mL/min/kg in series [9] (ICR, mouse, 1 µM); 39.9 mL/min/kg in [11] (SD, rat, 1 µM); 25.9 mL/min/kg in [12] (beagle, dog, 1 µM). In addition, the Eh in [7] (cynomolgus monkey, 1 µM) was determined as 0.762; in series [8] (human, 1 µM) it was 0.856; in series [9] (ICR, mouse, 1 µM), 0.650; in series [11] (SD, rat, 1 µM), 0.723; in series [12] (beagle, dog, 1 µM), 0.838. Moreover, the “CLint, in vivo” value is 140.6 mL/min/kg in [7] (hepatocytes); 122.6 mL/min/kg in series [8] (hepatocytes); 167.1 mL/min/kg in series [9] (hepatocytes); 144.0 mL/min/kg in [11] (hepatocytes); 160.0 mL/min/kg in series [12] (hepatocytes). The “CLint, in virto” value is recorded as 39.0 µL·min^-1·Million cells^-1 in [7] (monkey, hepatocytes); 33.9 µL·min^-1·Million cells^-1 in series [8] (human, hepatocytes); 14.1 µL·min^-1·Million cells^-1 in series [9] (mouse, hepatocytes); 30.8 µL·min^-1·Million cells^-1 in series [11] (rat, hepatocytes); 23.3 µL·min^-1·Million cells^-1 in [12] (dog, hepatocytes). Also, the half-life at 1 µM in series [10] (ICR, mouse) came to 49.3 min; in series [10] (SD, rat) it was 22.5 min; in series [10] (beagle, dog), 29.8 min; in series [10] (human), 20.4 min; in series [10] (monkey), 17.8 min.
